Experimental data: PubChem BioAssay AID1963833 (Molecular Pharmacology Branch, DTP, NCI, 2024)

Tested on: 883617-216-R-J1-PDC complex spheroid viability
Test: Anticancer human tumor 883617-216-R-J1-PDC patient-derived bladder carcinoma cell line growth inhibition [POLQ]
Conditions: for IC50: curve of first compound; for viability, T/C: stronger effect = lower value; active means viability on the fitted dose curve at most 10% of control; inactive means the rest
How it was run: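 PDC + HUVEC + MSC complex spheroids; POLQ inhibitors ± partner drugs; top conc. at/near clinical Cmax, else 10 microM (SN-38 1 microM), half-log dilutions; 37 degrees C, 5% CO2.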

[1] = second compound 0.0316 µM, first compound 0.0316 µM
[2] = second compound 0.0316 µM, first compound 0.1 µM
[3] = second compound 0.0316 µM, first compound 0.316 µM
[4] = second compound 0.0316 µM, first compound 1 µM
[5] = second compound 0.0316 µM, first compound 3.16 µM
[6] = second compound 0.0316 µM, first compound 10 µM
[7] = second compound 0.1 µM, first compound 0.0316 µM
[8] = second compound 0.1 µM, first compound 0.1 µM
[9] = second compound 0.1 µM, first compound 0.316 µM
[10] = second compound 0.1 µM, first compound 1 µM
[11] = second compound 0.1 µM, first compound 3.16 µM
[12] = second compound 0.1 µM, first compound 10 µM
[13] = second compound 0.316 µM, first compound 0.0316 µM
[14] = second compound 0.316 µM, first compound 0.1 µM
[15] = second compound 0.316 µM, first compound 0.316 µM
[16] = second compound 0.316 µM, first compound 1 µM
[17] = second compound 0.316 µM, first compound 3.16 µM
[18] = second compound 0.316 µM, first compound 10 µM
[19] = second compound 1 µM, first compound 0.0316 µM
[20] = second compound 1 µM, first compound 0.1 µM
[21] = second compound 1 µM, first compound 0.316 µM
[22] = second compound 1 µM, first compound 1 µM
[23] = second compound 1 µM, first compound 3.16 µM
[24] = second compound 1 µM, first compound 10 µM
[25] = second compound 3.16 µM, first compound 0.0316 µM
[26] = second compound 3.16 µM, first compound 0.1 µM
[27] = second compound 3.16 µM, first compound 0.316 µM
[28] = second compound 3.16 µM, first compound 1 µM
[29] = second compound 3.16 µM, first compound 3.16 µM
[30] = second compound 3.16 µM, first compound 10 µM
[31] = second compound 10 µM, first compound 0.0316 µM
[32] = second compound 10 µM, first compound 0.1 µM
[33] = second compound 10 µM, first compound 0.316 µM
[34] = second compound 10 µM, first compound 1 µM
[35] = second compound 10 µM, first compound 3.16 µM
[36] = second compound 10 µM, first compound 10 µM
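Further: spheroids exposed to compounds for seven days before readout.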
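Wherever viability, T/C is given: 100% = DMSO vehicle control viability.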

CC1COCCN1c1cc(C2(O)CC3CCC(C2)O3)c2cnn(-c3ccn[nH]3)c2n1 (centres undefined) + Nc1ccc(C#CCN(C(=O)Cc2ncc(C(F)(F)F)cc2C(F)(F)F)c2ccc(F)cc2)nn1
214 nM: IC50 (second compound 0.0316 µM)
269 nM: IC50 (second compound 10 µM)
inactive: viability, T/C [1] 70.8% | viability, T/C [2] 50.9% | viability, T/C [3] 48% | viability, T/C [4] 38.4% | viability, T/C [5] 35% | viability, T/C [6] 22.9% | viability, T/C [7] 75.2% | viability, T/C [8] 50.6% | viability, T/C [9] 40.9% | viability, T/C [10] 44.2% | viability, T/C [11] 34.9% | viability, T/C [12] 23.8% | viability, T/C [13] 68.8% | viability, T/C [14] 63.2% | viability, T/C [15] 47.8% | viability, T/C [16] 42.9% | viability, T/C [17] 37.5% | viability, T/C [18] 21.9% | viability, T/C [19] 60.9% | viability, T/C [20] 51.9% | viability, T/C [21] 45.1% | viability, T/C [22] 39.9% | viability, T/C [23] 32.3% | viability, T/C [24] 20.9% | viability, T/C [25] 67% | viability, T/C [26] 60.2% | viability, T/C [27] 45.2% | viability, T/C [28] 33.8% | viability, T/C [29] 38.7% | viability, T/C [30] 26.9% | viability, T/C [31] 73.1% | viability, T/C [32] 53.1% | viability, T/C [33] 53.1% | viability, T/C [34] 41.5% | viability, T/C [35] 39.2% | viability, T/C [36] 35.3%
168 nM: IC50 (second compound 0.1 µM)
175 nM: IC50 (second compound 1 µM)
414 nM: IC50 (second compound 0.316 µM)
218 nM: IC50 (second compound 3.16 µM)

COc1cc(C2c3cc4c(cc3C(OC3OC5COC(C)OC5C(O)C3O)C3COC(=O)C23)OCO4)cc(OC)c1O (centres undefined) + Cc1cccc(N(C)C(=O)C2C(O)CCN2c2nc(C)cc(C(F)(F)F)c2C#N)c1
> 10000 nM: IC50 (second compound 0.0316 µM) | IC50 (second compound 0.316 µM) | IC50 (second compound 1 µM) | IC50 (second compound 3.16 µM) | IC50 (second compound 10 µM)
6380 nM: IC50 (second compound 0.1 µM)
inactive: viability, T/C [1] 98.5% | viability, T/C [2] 95.8% | viability, T/C [3] 75.2% | viability, T/C [4] 66% | viability, T/C [5] 64% | viability, T/C [6] 54.8% | viability, T/C [7] 109% | viability, T/C [8] 97.8% | viability, T/C [9] 86.3% | viability, T/C [10] 68.1% | viability, T/C [11] 59.3% | viability, T/C [12] 44.7% | viability, T/C [13] 96.7% | viability, T/C [14] 85.9% | viability, T/C [15] 70% | viability, T/C [16] 66.7% | viability, T/C [17] 54.4% | viability, T/C [18] 53.6% | viability, T/C [19] 90% | viability, T/C [20] 102% | viability, T/C [21] 76.9% | viability, T/C [22] 64.5% | viability, T/C [23] 54.9% | viability, T/C [24] 52.6% | viability, T/C [25] 121% | viability, T/C [26] 94.5% | viability, T/C [27] 77.8% | viability, T/C [28] 61.3% | viability, T/C [29] 66.5% | viability, T/C [30] 49.6% | viability, T/C [31] 96.8% | viability, T/C [32] 104% | viability, T/C [33] 73% | viability, T/C [34] 73.2% | viability, T/C [35] 60% | viability, T/C [36] 55.5%
